Reference: patent US20230192705A1, “SHP2 INHIBITORS, COMPOSITIONS AND USES THEREOF” (Betta Pharmaceuticals Co., Ltd, priority 2020, published 2023)
Read-outs that look alike come from different tables or passages of the source.

How the values were obtained:
SHP2 = target: T1, SHP2 (Homo sapiens, UniProt Q06124); experiment: SHP2 allosteric inhibitor enzyme activity assay (DiFMUP fluorescence); format: biochemical
T1 sequence (Q06124 1-593): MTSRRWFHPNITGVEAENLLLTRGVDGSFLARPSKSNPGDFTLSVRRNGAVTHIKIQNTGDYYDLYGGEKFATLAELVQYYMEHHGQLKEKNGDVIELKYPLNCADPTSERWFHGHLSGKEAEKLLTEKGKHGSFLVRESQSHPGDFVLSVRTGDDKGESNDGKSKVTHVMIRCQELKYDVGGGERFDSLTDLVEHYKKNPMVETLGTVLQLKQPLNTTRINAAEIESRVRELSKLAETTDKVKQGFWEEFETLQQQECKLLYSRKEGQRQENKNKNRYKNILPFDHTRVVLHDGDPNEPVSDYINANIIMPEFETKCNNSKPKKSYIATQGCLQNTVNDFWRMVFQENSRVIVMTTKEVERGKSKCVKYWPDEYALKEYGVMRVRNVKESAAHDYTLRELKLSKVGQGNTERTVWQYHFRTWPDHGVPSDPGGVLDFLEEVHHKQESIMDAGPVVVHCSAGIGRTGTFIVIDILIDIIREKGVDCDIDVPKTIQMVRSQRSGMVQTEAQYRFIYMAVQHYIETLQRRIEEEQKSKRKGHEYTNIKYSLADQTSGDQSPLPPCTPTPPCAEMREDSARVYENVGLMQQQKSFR
Procedure, shortened: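 SHP2 activated by 0.5 μM IRS1_pY1172(dPEG8)pY1222 peptide, 0.2 ng enzyme per well, 1 h at room temperature with compound (1 μM top, 3-fold series), then DiFMUP substrate 1 h. Buffer: 60 mM HEPES, 75 mM NaCl, 75 mM KCl, 0.05% BRIJ-35, 1 mM EDTA, 5 mM DTT. Fluorescence ex 340/em 450 nm; IC50 by variable-slope fit.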

leukemia MV-4-11 cell = experiment: Cell proliferation assay (CellTiter-Glo), MV-4-11; format: cell-based; details: Homo sapiens, MV4-11, MV-4-11, 120 hrs, CTG, read-out: Compound on MV-4-11 cell IC50
[1] = test system: lung cancer NCI-H358 cell; experiment: Cell proliferation assay (CellTiter-Glo), NCI-H358; format: cell-based; details: Homo sapiens, NCI-H358, 96 hrs, CTG, read-out: Compound on NCI-H358 cell IC50
Procedure, shortened: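 NCI-H358 cells were seeded at 2000 per well on ultra-low-attachment plates and exposed to compound (1000 nM down to 0.1524 nM, threefold steps) for 96 hrs at 37 °C. Viable cells were measured as ATP by CellTiter-Glo luminescence. Inhibition was computed against 0 nM and medium blanks, and IC50 from variable-slope fits.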

SMILES | IC50 (SHP2; class symbols) [nM] | IC50 (leukemia MV-4-11 cell; class symbols) [nM] | IC50 ([1]; class symbols) [nM] | IC50 (leukemia MV-4-11 cell; numeric values) [nM] | IC50 ([1]; numeric values) [nM] | IC50 (SHP2; numeric values) [nM]
N[C@@H]1c2ccccc2CC12CCN(c1nc3[nH]nc(C4(c5ccc(F)cc5)CC4)c3c(=O)[nH]1)CC2 [Example 11, (S)-6-(1-amino-1,3-dihydrospiro[indene-2,4′-piperidin]-1′-yl)-3-(1-(4-fluorophenyl)cyclopropyl)-1,5-dihydro-4H-pyrazolo[3,4-d]pyrimidin-4-one] | ≤ 20 |  |  | 1.2 | 2.1 | 
N[C@@H]1c2ccccc2CC12CCN(c1nc3[nH]nc(C4(c5ccccc5)CC4(F)F)c3c(=O)[nH]1)CC2 (stereo partly drawn) [Example 9, 6-((S)-1-amino-1,3-dihydrospiro[indene-2,4′-piperidin]-1′-yl)-3-(2,2-difluoro-1-phenylcyclopropyl)-1,5-dihydro-4H-pyrazolo[3,4-d]pyrimidin-4-one] | ≤ 20 | ≤ 20 | ≤ 20 |  |  | 
N[C@@H]1c2ccccc2CC12CCN(c1nc3[nH]nc(C4(c5cccc(C(F)(F)F)c5)CC4)c3c(=O)[nH]1)CC2 [Example 8, (S)-6-(1-amino-1,3-dihydrospiro[indene-2,4′-piperidin]-1′-yl)-3-(1-(3-(trifluoromethyl)plienyl)cyclo-propyl)-1,5-dihydro-4H-pyrazolo[3,4-d]pyrimidin-4-one] |  |  |  | 6.1 | 1.7 | 2.2
N[C@@H]1c2ccccc2CC12CCN(c1nc3[nH]nc(C4(c5ccc6c(c5)OC(F)(F)O6)CC4)c3c(=O)[nH]1)CC2 [Example 13, (S)-6-(1-amino-1,3-dihydrospiro[indene-2,4′-piperidin]-1′-yl)-3-(1-(2,2-difluorobenzo[d][1,3]dioxol-5-yl)cyclopropyl)-1,5-dihydro-4H-pyrazolo[3,4-d]pyrimidin-4-one] | ≤ 20 | ≤ 20 | ≤ 20 |  |  | 
N[C@@H]1c2ccccc2CC12CCN(c1nc3[nH]nc(C4(c5cccc(F)c5)CC4)c3c(=O)[nH]1)CC2 [Example 6, (S)-6-(1-amino-1,3-dihydrospiro[indene-2,4′-piperidin]-1′-yl)-3-(1-(3-fluorophenyl)cyclopropyl)-1,5-dihydro-4H-pyrazolo[3,4-d]pyrimidin-4-one] |  |  |  | 6.5 | 8.6 | 0.62
N[C@@H]1c2ccccc2CC12CCN(c1nc3[nH]nc(C4(c5ccccc5)CC4)c3c(=O)[nH]1)CC2 [Example 33] |  | ≤ 20 | ≤ 20 |  |  | 0.9
N[C@@H]1c2ccccc2CC12CCN(c1nc3[nH]nc(C4(c5cccs5)CC4)c3c(=O)[nH]1)CC2 [Example 24, (S)-6-(1-amino-1,3-dihydrospiro[indene-2,4′-piperidin]-1′-yl)-3-(1-(thiophen-2-yl)cyclopropyl)-1,5-dihydro-4H-pyrazolo[3,4-d]pyrimidin-4-one] |  | ≤ 20 | ≤ 20 |  |  | 1.6
Cn1c(N2CCC3(CC2)Cc2ccccc2[C@H]3N)nc2[nH]nc(C3(c4ccccc4)CC3)c2c1=O [Example 1] | ≤ 20 | ≤ 20 |  |  |  | 
N[C@@H]1c2ccccc2CC12CCN(c1nc3[nH]nc(C4(c5ccc6c(c5)OCO6)CC4)c3c(=O)[nH]1)CC2 [Example 34, (S)-6-(1-amino-1,3-dihydrospiro[indene-2,4′-piperidin]-1′-yl)-3-(1-(benzo[d][1,3]dioxol-5-yl)cyclopropyl)-1,5-dihydro-4H-pyrazolo[3,4-d]pyrimidin-4-one] |  | ≤ 20 | ≤ 20 |  |  | 2.7
N[C@@H]1c2ccccc2CC12CCN(c1nc3[nH]nc(C4(c5ccc(Cl)c(Cl)c5)CC4)c3c(=O)[nH]1)CC2 [Example 21, (S)-6-(1-amino-1,3-dihydrospiro[indene-2,4′-piperidin]-1′-yl)-3-(1-(3,4-dichlorophenyl)cyclopropyl)-1,5-dihydro-4H-pyrazolo[3,4-d]pyrimidin-4-one] | ≤ 20 | ≤ 20 | ≤ 20 |  |  | 

Now from value to molecule:

IC50 (SHP2; class symbols) [nM] | IC50 (leukemia MV-4-11 cell; class symbols) [nM] | IC50 ([1]; class symbols) [nM] | IC50 (leukemia MV-4-11 cell; numeric values) [nM] | IC50 ([1]; numeric values) [nM] | IC50 (SHP2; numeric values) [nM] | SMILES
≤ 20 | ≤ 20 | ≤ 20 |  |  |  | N[C@@H]1c2ccccc2CC12CCN(c1nc3[nH]nc(C4(c5csnn5)CC4)c3c(=O)[nH]1)CC2 [Example 240, (S)-3-(1-(1,2,3-thiadiazol-4-yl)cyclopropyl)-6-(1-amino-1,3-dihydrospiro[indene-2,4′-piperidin]-1′-yl)-1,5-dihydro-4H-pyrazolo[3,4-d]pyrimidin-4-one]
≤ 20 | 20 to 60 | > 60 |  |  |  | N[C@@H]1c2ccccc2CC12CCN(c1nc3[nH]nc(C4(c5ccccc5)COC4)c3c(=O)[nH]1)CC2 [Example 96, (S)-6-(1-amino-1,3-dihydrospiro[indene-2,4′-piperidin]-1′-yl)-3-(3-phenyloxetan-3-yl)-1,5-dihydro-4H-pyrazolo[3,4-d]pyrimidin-4-one]
≤ 20 |  |  |  |  |  | Nc1ccc(C2(c3n[nH]c4nc(N5CCC6(CC5)Cc5ccccc5[C@H]6N)[nH]c(=O)c34)CC2)cc1 [Example 230, (S)-6-(1-amino-1,3-dihydrospiro[indene-2,4′-piperidin]-1′-yl)-3-(1-(4-aminophenyl)cyclopropyl)-1,5-dihydro-4H-pyrazolo[3,4-d]pyrimidin-4-one]
≤ 20 |  |  |  |  |  | N[C@@H]1c2ccccc2CC12CCN(c1nc3[nH]nc(C4(c5ccc(O)cc5)CC4)c3c(=O)[nH]1)CC2 [Example 234, (S)-6-(1-amino-1,3-dihydrospiro[indene-2,4′-piperidin]-1′-yl)-3-(1-(4-hydroxyphenyl)cyclopropyl)-1,5-dihydro-4H-pyrazolo[3,4-d]pyrimidin-4-one]
≤ 20 | 20 to 60 | 20 to 60 |  |  |  | N[C@@H]1c2ccccc2CC12CCN(c1nc3[nH]nc(C4(c5ccc(C(F)(F)F)cc5)CC4)c3c(=O)[nH]1)CC2 [Example 228, (S)-6-(1-amino-1,3-dihydrospiro[indene-2,4′-piperidin]-1′-yl)-3-(1-(4-(trifluoromethyl)phenyl)cyclo-propyl)-1,5-dihydro-4H-pyrazolo[3,4-d]pyrimidin-4-one]
≤ 20 | ≤ 20 | ≤ 20 |  |  |  | N#Cc1ccc(C2(c3n[nH]c4nc(N5CCC6(CC5)Cc5ccccc5[C@H]6N)[nH]c(=O)c34)CC2)cc1 [Example 237, (S)-4-(1-(6-(1-amino-1,3-dihydrospiro[indene-2,4′-piperidin]-1′-yl)-4-oxo-4,5-dihydro-1H-pyrazolo[3,4-d]pyrimidin-3-yl)cyclopropyl)benzonitrile]
